Measurements as given in publication PMC6193035, “Novel small molecules affecting cell membrane as potential therapeutics for avian pathogenic Escherichia coli” (Scientific Reports, 2018).
Values after ≈ are worked out from the molar mass of the structure shown. Read-outs that look alike come from different tables or passages of the source. Marks after values point to notes of the source that are not given here.

Columns and labels:
Format in all cases: cell-based, Escherichia coli
[1] = test system: APEC O1-63; experiment: Antimicrobial susceptibility, CAMHB micro-dilution (CLSI); conditions: APEC O1-63, CAMHB, (R) = resistant
Description: (§1) Initially, antimicrobial susceptibility profile was established for all the tested APEC serotypes using cation-adjusted Muller-Hinton broth (CAMHB) micro-dilution method according to clinical and laboratory standards institute (CLSI) guidelines.

[2] = test system: APEC O109; experiment: as above; conditions: (R) = resistant
Description: as §1

[3] = test system: APEC O115; experiment: as above; conditions: (R) = resistant
Description: as §1

[4] = test system: APEC O15; experiment: as above; conditions: (R) = resistant
Description: as §1

[5] = test system: APEC O18; experiment: as above; conditions: (R) = resistant
Description: as §1

[6] = test system: APEC O1; experiment: as above; conditions: (R) = resistant
Description: as §1

[7] = test system: APEC O2-211; experiment: as above; conditions: APEC O2-211, CAMHB, (R) = resistant
Description: as §1

[8] = test system: APEC O2; experiment: as above; conditions: (R) = resistant
Description: as §1

[9] = test system: APEC O35; experiment: as above; conditions: (R) = resistant
Description: as §1

[10] = test system: APEC O78-53; experiment: as above; conditions: APEC O78-53, CAMHB, (R) = resistant
Description: as §1

[11] = test system: APEC O78; experiment: as above; conditions: (R) = resistant
Description: as §1

[12] = test system: APEC O8; experiment: as above; conditions: (R) = resistant
Description: as §1

[13] = test system: E. coli ATCC 25922; experiment: Antimicrobial susceptibility, quality control strain (CLSI); conditions: E. coli ATCC 25922 quality control strain, CAMHB
Description: as §1

[14] = test system: APEC O78; experiment: Crystal violet (CV) uptake assay; conditions: 2X MBC, 30 mins; P < 0.05, Student's t-test
Experimental: (§2) Membrane permeability assays (crystal violet (CV) uptake and loss of 260/280 nm absorbing materials) were conducted as described previously. […] CV uptake was measured using the formula: (OD DMSO − OD SM/OD DMSO × 100). Two independent experiments in duplicates were conducted.

[15] = test system: APEC O78; experiment: Loss of 260/280 nm absorbing materials assay; conditions: 2X MBC, 1 h
Experimental: as §2

[16] = test system: APEC O78; experiment: Primary screening, growth inhibition of APEC O78; conditions: separate experiment, DMSO 1% to 32%, M63 media, 12 h
Experimental: To identify the APEC growth inhibitors, SM library was screened against APEC O78 which is one of the most frequently isolated APEC serotypes from avian colibacillosis cases. One microlitre SMs (final concentration of 100 µM) were added using a slotted pin tool (V and P Scientific, San Diego, CA, USA) to the wells of the 96-well plate containing 100 µL of overnight grown 0.05 OD600 (7 × 10^7 CFU/mL) adjusted APEC culture. Controls (four replicates/plate) containing 1 µL of 100% DMSO (final concentration of 1%), 1 µL chloramphenicol (CHL, #C0378 Sigma-Aldrich) (20 µg/mL), 1 µL kanamycin (KAN, #60615 Sigma-Aldrich) (50 µg/mL), and 100 µL of M63 media were included. To determine the effect of DMSO on APEC growth, antimicrobial activity of DMSO was determined at different concentrations (1% to 32%) in a separate experiment. Plate was then incubated at 37 °C for 12 h in Sunrise - Absorbance microplate reader (Tecan Group Ltd. San Jose, CA) with kinetic OD600 measurement every 30 mins. The quality of screening was assessed by calculating the Z′-score as described previously. The growth inhibition of APEC was calculated by using the formula as previously described[13],[14]. The SMs inhibiting at least 80% of the APEC growth were selected as primary hits. […]

[17] = Escherichia coli, read-out: MIC
[18] = Escherichia coli, ATCC25922, read-out: MIC

Molecule | MIC [1, 17] [mg/L] | MIC [2, 17] [mg/L] | MIC [3, 17] [mg/L] | MIC [4, 17] [mg/L] | MIC [5, 17] [mg/L] | MIC [6, 17] [mg/L] | MIC [7, 17] [mg/L] | MIC [8, 17] [mg/L] | MIC [9, 17] [mg/L] | MIC [10, 17] [mg/L] | MIC [11, 17] [mg/L] | MIC [12, 17] [mg/L] | MIC [13, 18] [mg/L] | further results
CC1(C)S[C@@H]2[C@H](NC(=O)[C@H](N)c3ccccc3)C(=O)N2[C@H]1C(=O)O [Ampicillin, ampicillin] | 4 (≈ 11.4 µM) | > 64 | > 64 | 2 (≈ 5.72 µM) | 4 (≈ 11.4 µM) | > 64 | 4 (≈ 11.4 µM) | > 64 | 2 (≈ 5.72 µM) | 4 (≈ 11.4 µM) | > 64 | 4 (≈ 11.4 µM) | 8 (≈ 22.9 µM) | –
O=C(O)CN(CCN(CC(=O)O)CC(=O)O)CC(=O)O [EDTA, ethylenediaminetetraacteic acid, reference compound] | – | – | – | – | – | – | – | – | – | – | – | – | – | uptake of crystal violet compared with DMSO [14]: increased the uptake of crystal violet; 260 nm absorbing materials in supernatant compared with DMSO [15]: significantly (P < 0.05, Student’s t-test) increased; Absorbance 280 nm of treated supernatant ([15]; DMSO 2.58, superscript a P < 0.05 vs DMSO): 2.60; Absorbance 260 nm of treated supernatant ([15]; DMSO 3.77, superscript a P < 0.05 vs DMSO): 4.00^a
C[S+](C)[O-] [DMSO, dimethyl sulfoxide] | – | – | – | – | – | – | – | – | – | – | – | – | – | DMSO concentration inhibitory to APEC [16]: ≥ 8%
CN(C)[C@@H]1C(O)=C(C(N)=O)C(=O)[C@@]2(O)C(O)=C3C(=O)c4c(O)cccc4[C@@](C)(O)[C@H]3C[C@@H]12 [Tetracycline, tetracycline] | 16 (≈ 36 µM) | 1 (≈ 2.25 µM) | > 64 | > 64 | 2 (≈ 4.5 µM) | > 64 | > 64 | > 64 | 1 (≈ 2.25 µM) | > 64 | 32 (≈ 72 µM) | > 64 | 0.5 (≈ 1.13 µM) | –
colistin | – | – | – | – | – | – | – | – | – | – | – | – | – | MIC [1]: 4 mg/L; MIC [2]: 0.5 mg/L; MIC [3]: 1 mg/L; MIC [4]: 1 mg/L; MIC [5]: 1 mg/L; MIC [6]: 0.5 mg/L; MIC [7]: 4 mg/L; MIC [8]: 0.5 mg/L; MIC [9]: 1 mg/L; MIC [10]: 0.5 mg/L; MIC [11]: 0.25 mg/L; MIC [12]: 1 mg/L; MIC [13]: 1 mg/L
